Assays:
[1] = tested on: ABUTH; assay: Herbicidal post-emergence action - Part II; format: in vivo, Abutilon theophrasti
Excerpt: (§1) Seeds of mono- and dicotyledonous weed plants and crop plants were sown, in plastic or organic planting pots, in sandy loam, covered with soil and grown in a greenhouse under controlled growth conditions. 2 to 3 weeks after sowing, the test plants were sprayed in the single-leaf stage. The compounds according to the invention, formulated in form of wettable powders (WP) or as emulsifiable concentrates (EC), were sprayed onto the green plant parts as aqueous suspension or emulsion, with the addition of 0.5% of an additive, at an application rate of 600 1 of water/ha (converted). The test plants were placed in the greenhouse for ca. 3 weeks under optimum growth conditions, and then the effect of the preparations was assessed visually in comparison with untreated controls (herbicidal effect in percent (%): 100% effect = plants have died off, 0% effect = as control plants). Tables E1 to E10 below show the effects of selected compounds of the general formula (I) according to table 1 on various harmful plants and an application rate corresponding to 320 g/ha or below obtained by the experimental procedure mentioned above. Table E1a: post-emergence activity at 5g/ha against ABUTH in %

[2] = tested on: AMARE; assay: Herbicidal post-emergence action - Part II; format: in vivo, Amaranthus retroflexus
Excerpt: as §1

[3] = tested on: ECHCG; assay: Herbicidal post-emergence action - Part II; format: in vivo, Echinochloa crus-galli; conditions: 20 g/ha; Table E3a
Excerpt: as §1

[4] = tested on: MATIN; assay: Herbicidal post-emergence action - Part II; format: in vivo, Matricaria inodora
Excerpt: as §1

[5] = tested on: PHBPU; assay: Herbicidal post-emergence action - Part II; format: in vivo, Pharbitis purpurea
Excerpt: as §1

[6] = tested on: SETVI; assay: Herbicidal post-emergence action - Part II; format: in vivo, Setaria viridis; conditions: 20 g/ha; Table E7b
Excerpt: as §1

[7] = tested on: VERPE; assay: Herbicidal post-emergence action - Part II; format: in vivo, Veronica persica
Excerpt: as §1

[8] = tested on: VIOTR; assay: Herbicidal post-emergence action - Part II; format: in vivo, Viola tricolor
Excerpt: as §1

[9] = tested on: ZEAMX; assay: Post-emergence effects on crop plants; format: in vivo, Zea mays; conditions: 20 g/ha; Table F1b; crop plant
Excerpt: as §1, with “F1” for “E1”, “F5” for “E10”, “crop” for “harmful”, “[…]:” for “E1a:”, “ZEAMX” for “ABUTH”

[10] = tested on: TRZAS; assay: Post-emergence effects on crop plants; format: in vivo, Triticum aestivum; conditions: crop plant
Excerpt: as §1, with “F1” for “E1”, “F5” for “E10”, “crop” for “harmful”, “[…]:” for “E1a:”, “ZEAMX” for “ABUTH”

[11] = tested on: POLCO; assay: Herbicidal post-emergence action - Part II; format: in vivo, Polygonum convolvulus; conditions: 20 g/ha; Table E6
Excerpt: as §1

SMILES	post-emergence activity against ABUTH ([1]; 5 g/ha, Table E1a) [%]	post-emergence activity against ABUTH ([1]; 20 g/ha, Table E1b) [%]	post-emergence activity against AMARE ([2]; 5 g/ha, Table E2a) [%]	post-emergence activity against AMARE ([2]; 20 g/ha, Table E2b) [%]	post-emergence activity against ECHCG [3] [%]	post-emergence activity against MATIN ([4]; 20 g/ha, Table E4b) [%]	post-emergence activity against PHBPU ([5]; 5 g/ha, Table E5a) [%]	post-emergence activity against PHBPU ([5]; 20 g/ha, Table E5b) [%]	post-emergence activity against SETVI [6] [%]	post-emergence activity against VERPE ([7]; 5 g/ha, Table E8a) [%]	post-emergence activity against VERPE ([7]; 20 g/ha, Table E8b) [%]	post-emergence activity against VIOTR ([8]; 5 g/ha, Table E9a) [%]	post-emergence activity against VIOTR ([8]; 20 g/ha, Table E9b) [%]	post-emergence activity against ZEAMX [9] [%]	post-emergence activity against TRZAS ([10]; 5 g/ha, Table F2a) [%]	post-emergence activity against TRZAS ([10]; 20 g/ha, Table F2b) [%]	post-emergence activity against MATIN ([4]; 5 g/ha, Table E4a) [%]	post-emergence activity against POLCO [11] [%]
Cn1c(C(F)(F)F)cc(=O)n(-c2cc(C3=NOC4(CCN(Cc5ccccc5Cl)C4=O)C3)c(Cl)cc2F)c1=O (racemic) [Compound I-30]	100	100	100	100	100	100	100	100	100	90	100	100	100	20	20	20	–	–
Cn1c(C(F)(F)F)cc(=O)n(-c2cc(C3=NOC4(CCN(Cc5cccc(F)c5F)C4=O)C3)c(Cl)cc2F)c1=O (racemic) [Compound I-33]	100	100	100	100	100	100	100	100	100	100	100	100	100	–	20	20	90	100

Source: EP4509511A1, “SUBSTITUTED SPIRO-ISOXAZOLINYL LACTAMS, SALTS THEREOF AND THEIR USE AS HERBICIDALLY ACTIVE SUBSTANCES” (Bayer Aktiengesellschaft, priority 2023, dated 2025)
